Laboratory results: patent US7741354B2, “Inhibitors of glutaminyl cyclase” (Probiodrug AG, priority 2006, dated 2010)

Molecular target: hQC (Homo sapiens, UniProt Q16769)
Assay: Fluorometric (fluorescent) assay of hQC inhibition, IC50
Assay type: biochemical
Details: hQC inhibition; read-out: IC50
Protocol: All compounds were immediately tested regarding their activity as hQC inhibitors.
The purity of the compounds was determined by HPLC-MS. The IC50 value against hQC was measured using the fluorescent assay.
All measurements were performed with a BioAssay Reader HTS-7000Plus for microplates (Perkin Elmer) at 30° C. QC activity was evaluated fluorometrically using H-Gln-βNA. The samples consisted of 0.2 mM fluorogenic substrate, 0.25 U pyroglutamyl aminopeptidase (Unizyme, Horsholm, Denmark) in 0.2 M Tris/HCl, pH 8.0 containing 20 mM EDTA and an appropriately diluted aliquot of QC in a final volume of 250 μl. Excitation/emission wavelengths were 320/410 nm. The assay reactions were initiated by addition of glutaminyl cyclase. QC activity was determined from a standard curve of β-naphthylamine under assay conditions. One unit is defined as the amount of QC catalyzing the formation of 1 μmol pGlu-βNA from H-Gln-βNA per minute under the described conditions.
In a second fluorometric assay, QC was activity determined using H-Gln-AMC as substrate. Reactions were carried out at 30° C. utilizing the NOVOStar reader for microplates (BMG labtechnologies). The samples consisted of varying concentrations of the fluorogenic substrate, 0.1 U pyroglutamyl aminopeptidase (Qiagen) in 0.05 M Tris/HCl, pH 8.0 containing 5 mM EDTA and an appropriately diluted aliquot of QC in a final volume of 250 μl. Excitation/emission wavelengths were 380/460 nm. The assay reactions were initiated by addition of glutaminyl cyclase. QC activity was determined from a standard curve of 7-amino-4-methylcoumarin under assay conditions. The kinetic data were evaluated using GraFit sofware.
For inhibitor testing, the sample composition was the same as described above, except of the putative inhibitory compound added. For a rapid test of QC-inhibition, samples contained 4 mM of the respective inhibitor and a substrate concentration at 1 KM. For detailed investigations of the inhibition and determination of Ki-values, influence of the inhibitor on the auxiliary enzymes was investigated first. […] The inhibitory constant was evaluated by fitting the set of progress curves to the general equation for competitive inhibition using GraFit software.

hQC, sequence (Q16769 29-361): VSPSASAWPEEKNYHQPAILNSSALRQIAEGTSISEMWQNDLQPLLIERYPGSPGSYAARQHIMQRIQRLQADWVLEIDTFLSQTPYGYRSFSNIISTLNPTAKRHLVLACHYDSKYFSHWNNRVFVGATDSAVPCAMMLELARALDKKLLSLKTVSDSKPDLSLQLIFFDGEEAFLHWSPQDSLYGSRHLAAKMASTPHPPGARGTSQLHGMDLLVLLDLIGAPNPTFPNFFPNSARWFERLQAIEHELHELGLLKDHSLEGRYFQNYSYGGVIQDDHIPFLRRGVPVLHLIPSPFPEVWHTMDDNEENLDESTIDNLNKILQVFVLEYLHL

SMILES	IC50
CCCOc1cccc(C(Nc2ccc3[nH]cnc3c2)c2nnnn2C2CCCCC2C(=O)OCC)c1 (centres unmarked) [compound 208]	2.2 µM
c1ccc(C(c2ccccc2)n2nnnc2C(Nc2ccc3[nH]cnc3c2)c2cccnc2)cc1 (centres unmarked) [compound 158, [(1-Benzhydryl-1H-tetrazol-5-yl)-pyridin-3-yl-methyl]-(1H-benzoimidazol-5-yl)-amine]	9.4 µM
c1cncc(Cn2nnnc2C(Nc2ccc3[nH]cnc3c2)c2ccc3nsnc3c2)c1 (centres unmarked) [compound 185]	6.7 µM
Brc1cc(Br)cc(C(Nc2ccc3[nH]cnc3c2)c2nnnn2-c2ccccc2OCc2ccccc2)c1 (centres unmarked) [compound 180, (1H-Benzoimidazol-5-yl)-[[1-(2-benzyloxy-phenyl)-1H-tetrazol-5-yl]-(3,5-dibromo-phenyl)-methyl]-amine]	4.9 µM
CCc1ccc(C(Nc2ccc3[nH]cnc3c2)c2nnnn2C2CCCCC2)cc1 (centres unmarked) [compound 198, (1H-Benzoimidazol-5-yl)-[(1-cyclohexyl-1H-tetrazol-5-yl)-(4-ethyl-phenyl)-methyl]-amine]	4.9 µM
Brc1cc(Br)cc(C(Nc2ccc3[nH]cnc3c2)c2nnnn2CCC(c2ccccc2)c2ccccc2)c1 (centres unmarked) [compound 188, (1H-Benzoimidazol-5-yl)-{(3,5-dibromo-phenyl)-[1-(3,3-diphenyl-propyl)-1H-tetrazol-5-yl]-methyl}-amine]	4 µM
O=[N+]([O-])c1ccc(-n2nnnc2C(Nc2ccc3[nH]cnc3c2)c2csc3ccccc23)cc1 (centres unmarked) [compound 206]	8.5 µM
O=[N+]([O-])c1cc(C(Nc2ccc3[nH]cnc3c2)c2nnnn2Cc2ccccc2Cl)ccc1Cl (centres unmarked) [compound 148, (1H-Benzoimidazol-5-yl)-[[1-(2-chloro-benzyl)-1H-tetrazol-5-yl]-(4-chloro-3-nitro-phenyl)-methyl]-amine]	1.3 µM
Brc1ccc(C(Nc2ccc3[nH]cnc3c2)c2nnnn2-c2ccccc2OCc2ccccc2)cc1 (centres unmarked) [compound 203, (1H-Benzoimidazol-5-yl)-[[1-(2-benzyloxy-phenyl)-1H-tetrazol-5-yl]-(4-bromo-phenyl)-methyl]-amine]	2.2 µM
CCOC(=O)C1CCCCC1n1nnnc1C(Nc1ccc2[nH]cnc2c1)c1cc(Cl)ccc1O (centres unmarked) [compound 169, 2-{5-[(1H-Benzoimidazol-5-ylamino)-(5-chloro-2-hydroxy-phenyl)-methyl]-tetrazol-1-yl}-cyclohexacar-boxylic acid ethyl ester]	7.6 µM

Same assay, conditions: read-out: IC50

SMILES	IC50
COc1ccc(C(Nc2ccc3[nH]cnc3c2)c2nnnn2Cc2ccc(Cl)cc2)c(C)c1 (centres unmarked) [compound 75, (1H-Benzoimidazol-5-yl)-[[1-(4-chloro-benzyl)-1H-tetrazol-5-yl]-(4-methoxy-2-methyl-phenyl)-methyl]-amine]	2.2 µM
Cn1nnnc1C(NCCCn1ccnc1)c1ccc2ccccc2n1 (centres unmarked) [compound 31, (3-Imidazol-1-yl-propyl)-[(1-methyl-1H-tetrazol-5-yl)-quinolin-2-yl-methyl]-amine]	4.9 µM
COCCCn1nnnc1C(NCCCn1ccnc1)c1ccc2[nH]ccc2c1 (centres unmarked) [compound 35, (3-Imidazol-1-yl-propyl)-{(1H-indol-5-yl)-[1-(3-methoxy-propyl)-1H-tetrazol-5-yl]-methyl}-amine]	7.6 µM
Oc1cccc2ccc(C(NCCCn3ccnc3)c3nnnn3C[C@@H]3CCCO3)nc12 (stereo partly drawn) [compound 12, 2-((3-Imidazol-1-yl-propylamino)-{1-[(S)-1-(tetrahydro-furan-2-yl)methyl]-1H-tetrazol-5-yl}-methyl)-quinolin-8-ol]	2.2 µM
COCCn1nnnc1C(NCCCn1ccnc1)c1ccc2cccc(O)c2n1 (centres unmarked) [compound 40, 2-{(3-Imidazol-1-yl-propylamino)-[1-(2-methoxy-ethyl)-1H-tetrazol-5-yl]-methyl}-quinolin-8-ol]	3.1 µM
CC(C)(C)Cn1nnnc1C(NCCCn1ccnc1)[C@@H]1CCC=CO1 (some centres unmarked) [compound 67]	6.7 µM
COCCCn1nnnc1C(NCCCn1ccnc1)c1ccc2cccc(O)c2n1 (centres unmarked) [compound 34, 2-{(3-Imidazol-1-yl-propylamino)-[1-(3-methoxy-propyl)-1H-tetrazol-5-yl]-methyl}-quinolin-8-ol]	2.2 µM
